Measured values published in patent US20200164072A1, “NANOCOMPLEXES FOR REMOTELY-TRIGGERED GUEST MOLECULE RELEASE AND METHODS FOR FABRICATING THE SAME” (William Marsh Rice University, priority 2018, published 2020).

Columns and labels:
Assay in all cases: LDH cytotoxicity assay after light-triggered release
Type in all cases: cell-based
[1] = test system: MDA-MB-231 breast cancer cells; conditions: pulsed laser-induced release (25 mW, 160 fs, 2 min) from NS@DNA1@DTX, FIG. 7A; 24 h
Procedure: (§1) Cellular cytotoxicity resulting from light-triggered release of DTX and LAP from both dsDNA and HSA nanohost molecules was evaluated. Cells were irradiated, according to one or more embodiments, with either a CW laser imparting 1.5 W of power or with a pulsed-laser using a Ti:Sapphire tunable laser operating at 250 kHz with an average power of 25 mW and 160-fs pulsed-laser power for 2 min.
(§2) After the guest molecules were released, each sample was treated at 37° C., 5% CO2 for a treatment period of 24 h to allow time for the released drug guest molecules to interact with the cells. Cell death was evaluated with a lactate dehydrogenase (LDH) cytotoxicity assay. Percent cytotoxicity values were calculated considering 10% cell death in the control experiment, NS @host with no laser treatment.

[2] = test system: SKBR3 breast cancer cells; conditions: released LAP; HER2 expressing breast cancer cells vs noncancerous cells
Procedure: as §1, §2
(§3) LAP was released from both an NS @DNA nanohost control and an NS @HSA nanohost in both SKBR3 breast cancer cells and RAW 264.7 macrophage cells.

[3] = test system: RAW 264.7 macrophage cells; conditions: macrophages lack the HER2 receptor
Procedure: as §1, §2, §3

Row | SMILES | cell death (LDH) [1] | selectivity of cell death [2] | cytotoxicity in macrophages [3]
1 | CC(=O)O[C@@]12CO[C@@H]1C[C@H](O)[C@@]1(C)C(=O)[C@H](O)C3=C(C)[C@@H](OC(=O)[C@H](O)[C@@H](NC(=O)OC(C)(C)C)c4ccccc4)C[C@@](O)([C@@H](OC(=O)c4ccccc4)[C@H]21)C3(C)C [DTX, docetaxel] | No increased cell death |  | 
2 | CS(=O)(=O)CCNCc1ccc(-c2ccc3ncnc(Nc4ccc(OCc5cccc(F)c5)c(Cl)c4)c3c2)o1 [LAP, lapatinib] |  | selectively induces cell death in HER2 expressing breast cancer cells, without affecting noncancerous cells | does not cause cytotoxicity
